A short description of assay [1]: beta-oxidation assay: 14C-palmitic acid incorporated into liver triglyceride. The assay is classed as in vivo, mouse. The conditions noted are these: DIO mice fed 50 mg/kg for 7 days; liver removed 10 min after 14C-palmitic acid IV.
Protocol: The injection solution prepared in Section 1 was injected into tail veins of DIO mice at a dose of 10 microCi/150 μl/head, and the liver was removed 10 min later.
The removed liver was immediately and rapidly frozen in liquid nitrogen and weighed. A 5-fold weight of a 5 mM Tris-HCl buffer solution containing 0.25 M sucrose, 5 mM MgCl2, 1 mM mercaptoethanol and 0.5 mM EDTA was added to the liver tissues which were then homogenized. Equal amounts of each sample was taken and transferred to fresh 15 mL containers to which a 2.5-fold amount of C/M solution (chloroform:MetOH=2:1) was added, respectively. The mixtures were thoroughly mixed using a homogenizer for 2 min, centrifuged at 2500 rpm for 20 min to separate chloroform layers that were then transferred to fresh containers. The remaining materials were thoroughly mixed with 2-fold amounts of the C/M solution for 2 min, and centrifuged to separate chloroform layers. […] Then, more than 10-fold volumes of a toluene cocktail solution were added to chloroform layers of the vials and the mixtures were thoroughly mixed using a stirrer, and radioactivity was measured using a scintillation counter.
10 μCi of 14C-palmitic acid was IV-injected to a tail vein of mice and 10 min later the liver was removed and homogenized Fat was extracted from the homogenizate, and radioactivity was measured by a liquid scintillation counter.
Another assay relates to HepG2 cells. Kind of assay: calcium influx (Fluo-4) in HepG2 cells. The format is cell-based, human. The protocol:
Cells were grown on a coverslip in a culture medium for 24 hours, maintained in an RPMI 1640 serum-free medium for 1 hour, and pretreated with a calcium indicator Fluo-4 (5 μM) for 30 min. After pretreatment, the coverslip was mounted on a slide glass. Changes in an intracellular calcium concentration were observed using a fluorescence microscope (Carl Zeiss) for 30 sec, and cells were treated with a candidate compound (e.g. pyran-1,2-naphthoquinone) simultaneously with consecutive imaging of calcium changes using a fluorescence microscope (Carl Zeiss) for 2 sec. […] Changes in the intracellular calcium concentration were observed using a fluorescence microscope (Carl Zeiss) for 30 sec, and cells were treated with pyre-1,2-naphthoquinone (10 μM), followed by continuous shooting of calcium changes using a fluorescence microscope for 2 sec. Using an LSM Image Browser program (Carl Zeiss), 300 images taken for 10 min every 2 seconds were sorted and ordered in a time sequence and plotted on a graph.
For determination of the inner mitochondrial membrane potential (ΔΨm), 20 nM of TMRE (tetramethylrhodamine ethyl ester) as a fluorescent indicator was continuously applied to be loaded on cells. In order to monitor mitochondrial Ca^2+, cells on glass coverslips were loaded with 10 μM Rhod-2 AM via cold loading/warm incubation. In order to monitor cytosolic Ca^2+, cells were co-loaded with 10 μM Fluo-4 AM at 37′C for 30 min. […] Images for TMRE (red fluorescence), Rhod-2 (red fluorescence) and Fluo-4 (green fluorescence) were obtained using an inverted Zeiss 510META laser-scanning confocal microscope equipped with ×63 numerical aperture, 1.4 oil-immersion planapochromat lens. Green fluorescence and red fluorescence were illuminated with light of 488 nm and 543 nm. […]
Cells were cultured for 24 hours and then pre-treated with Fluo-4 for 30 min. Cells immobilized on a coverslip were transferred to a slide glass and treated with pyrano-1,2-naphthoquinone (10 μM), and at the same time images were taken every 2 seconds for 10 min using a fluorescence microscope.

In another assay the test system is HEK293 cells. Kind of assay: mitochondrial membrane potential (TMRE fluorescence) in HEK293 cells. The assay is classed as cell-based, human. On the procedure:
For determination of the inner mitochondrial membrane potential (ΔΨm), 20 nM of TMRE (tetramethylrhodamine ethyl ester) as a fluorescent indicator was continuously applied to be loaded on cells. In order to monitor mitochondrial Ca^2+, cells on glass coverslips were loaded with 10 μM Rhod-2 AM via cold loading/warm incubation. In order to monitor cytosolic Ca^2+, cells were co-loaded with 10 μM Fluo-4 AM at 37′C for 30 min. The cells were washed twice with a KB solution, and mounted in a perfusion chamber. Fluorescent imaging was taken using a confocal laser scanning microscope (LSM-510 META, Carl Zeiss) at a magnification of ×200 and ×400, in conjunction with appropriate laser lines and a filter set. Image analysis was carried out using LSM-510 META software (Zeiss). Images for TMRE (red fluorescence), Rhod-2 (red fluorescence) and Fluo-4 (green fluorescence) were obtained using an inverted Zeiss 510META laser-scanning confocal microscope equipped with ×63 numerical aperture, 1.4 oil-immersion planapochromat lens. Green fluorescence and red fluorescence were illuminated with light of 488 nm and 543 nm. Incident light was passed through a 545 nm dichroic mirror and observed via a 500 to 530 nm band-pass (green) filter and a 560 nm long-pass (red) barrier filter.
However, such effects were not observed in HEK293 cells. […]

Another assay deals with AMPK. The experiment in a line: AMPK kinase assay in mouse tissues. The assay is classed as in vivo.
Assay [2] has as its system mRNAs in liver, adipose and muscle tissues. The experiment in a line: real-time quantitative PCR / microarray of gene expression in tissues of DIO mice. The assay is classed as in vivo, mouse. The protocol: Animals were continuously fed high-fat diet pellets for 3 to 4 weeks, thereby establishing DIO mice. Mice were raised in a breeding room with a 12 h/12 h light/dark D) cycle. Animals were divided into three groups, i.e., a group with administration of physiological saline (n=3), a group with administration of a vehicle (n=5) and a group with administration of 50 mg/kg of a candidate compound (n=7). Samples were orally administered to animals every day. On Days 7, 28 and 56, each tissue was removed, frozen in liquid nitrogen, and stored at […] for short and long periods of time.
On Days 7, 28 and 56, liver, adipose and muscle tissues were isolated from two groups of diet-induced DIO mice and total RNAs were extracted using Trizol. cDNAs were synthesized using 1 μg of total RNAs, and polymerase used for PCR was prepared using M-MLV polymerase according to a method instructed by the manufacturer. Real-time quantitative PCR was carried out using the prepared cDNAs.
A cDNA microarray analysis was carried out using an affymetrix mouse genome 430A 2.0 array chip. Using trizol, about 13 μg of total RNA was extracted in a concentration of more than 1 μg/1 μl from liver, adipose and muscle tissues of DIO mice on Days 7, 28 and 56, followed by a microarray analysis. Functional classification was made using NetAffx which is available from the Affymetrix website.
Adipose, liver or muscle tissues were pooled from male mice treated with a vehicle or a candidate compound for 4 weeks and the pooled tissues were subjected to microarray analysis. Total RNA was prepared from the tissues homogenized with a Trizol reagent (Invitrogen, Carlsbad, Calif.). Probes for the microarray analysis were prepared from 10 μg of the total RNA, and hybridized to Mouse 430A GeneChips (Affymetrix, Santa Clara, Calif.). The hybridized array was scanned, and raw data was extracted using Microarray Analysis Suite 5.0 (Affymetrix). For PCR quantitation, 1 μg of total RNA was reversely transcribed into cDNA using Superscript II and oligo(dT) primers. The constructed cDNA was amplified with the LightCycler FastStart DNA Master SYBR Green I kit and LightCycler, according to the manufacturer's instruction (Roche Diagnostics, Indianapolis, Ind.). Expression data were normalized to β-actin expression.
In order to investigate anti-obesity effects of an NQO1 activator, the NQO1 activator was administered daily to DIO mice at a dose of 50 mg/kg via an oral route, and an attempt was made to confirm levels of mRNAs of acetyl CoA carboxylase (ACC) 1, ACC2, fatty acid synthase (FAS), lipoprotein lipase (LPL), and stearoyl-CoA desaturase 1 (SCD1), which participate in lipid metabolism in the hepatic and gonadal adipose tissues, by real-time quantitative PCR. These enzymes are very important for lipid metabolism; it is known that ACC catalyzes formation of malonyl CoA from acetyl CoA, FAS catalyzes formation of palmitate from malonyl CoA, and SCD1 catalyzes formation of monounsaturated fat, thus playing a critical role in formation of triacylglycerol, a major energy store. Therefore, these enzymes are closely correlated with obesity, diabetes, and lipid metabolism-related diseases. […] Therefore, from the results of such increased or decreased expression of genes for the above-mentioned enzymes, it can be inferred that NQO1 will be feasible as a therapeutic target for the treatment of metabolic diseases.
In order to investigate effects of βL on the expression of genes involved in glucose and fat metabolism in liver, skeletal muscle and white adipose tissue (WAT), experiments were caned out using gene expression microarray analysis and mouse A42 Affymetrix GeneChip.

[3] abbreviates: DIO mice, oral 50 mg/kg, data not shown.
[4] abbreviates: DIO mice, 50 mg/kg daily oral, liver and gonadal adipose tissues.
Setting [5] is: gonadal adipose tissues, Days 7, 28 and 56, 50 mg/kg daily oral.

For `CC1(C)CCC2=C(O1)c1ccccc1C(=O)C2=O` [βL, 2,2-Dimethyl-3,4-dihydro-2H-benzo[h]chromene-5,6-dione], the “amount of 14C-palmitic acid incorporated into hepatic triglyceride (TG), lower than vehicle-treated mice” value in assay [1] is “about 45%”. For the same compound, the “cytosolic Ca2+ concentration ([Ca2+]c) and mitochondrial Ca2+ concentration ([Ca2+]m)” value in the assay on HepG2 cells (Fluo4 and Rhod-2-AM fluorescence, cells not given) is reported as “increases”. In addition, the “time of calcium peak after treatment” value in the assay with HepG2 cells (HepG2, 10 μM) is given as “about 10 sec”. For the same compound, in the assay on HEK293 cells, the “effect on TMRE fluorescence / ΔΨm” value was “not observed”. In addition, the “AMPK activity in the liver and gonadal adipose tissues” value in the assay on AMPK (C57BL/6 mice, 5 mg/kg tail vein, 2 hours and 4 hours) is reported as “increased AMPK activity”. In the assay with AMPK (DIO mice, oral 50 mg/kg), the “AMPK activity in liver, EDL and soleus muscle vs vehicle-treated control” value is on record as “higher”. In the assay with AMPK (setting [3]), the “duration of oral administration effect on AMPK activity” value was “about 6 hours” and the “time of maximum oral administration effect on AMPK activity” value worked out at 2 h. Besides, in assay [2] (DIO mice, 50 mg/kg daily oral), the “LPL mRNA level increase compared to control” value is listed as “approximately 2 fold”; the “increase in mRNA levels of PPAR gamma” value was “two-fold”; the “mRNA of PPAR alpha” value is reported as “not changed”; the “mRNAs of AOX, AMPK alpha 1, AMPK alpha 2 and carnitine palmitoyltransferase 1” value is “increased levels”. Besides, the “expression levels of mRNAs of ACC1 and ACC2, FAS, LPL, and SCD1” value in assay [2] (DIO mice, 50 mg/kg daily oral, hepatic and gonadal adipose tissues) is given as “remarkably decreased”. In assay [2] (setting [4]), the “HK2 mRNA level” value was “decreased”; the “mRNA levels of UCP1 & 2” value is recorded as “significant increases”; the “mRNAs of GLUT2 and GLUT4” value is given as “significant increases”; the “mRNAs of PGC1α, NRF1, mtTFA, COX4 and COX7” value is listed as “increased levels of mRNAs for all enzymes”. The “expression of LPL, ATGL, PPARα, SIRT1, Glut2 and Glut4” value in assay [2] (adipose tissues, vs vehicle-treated mice) is “higher”. Further, in assay [2] (setting [5]), the “transcripts of SIRT1, SIRT3 and SIRT6” value is recorded as “significantly increased”; the “transcripts of SIRT2, SIRT5 and SIRT7” value is given as “did not exhibit any noticeable difference”. Besides, the “expression of PGC-1α and NRF-1” value in assay [2] (liver and muscle, βL-treated vs vehicle-treated mice) is listed as “significantly induced”. Moreover, in assay [2] (muscle), the “expression of COX4, COX7, AOX, UCP2 and UCP3” value was “strongly upregulated”; the “expression of GLUT 2 and GLUT 4” value is given as “induced”. For the same compound, the “expression of Sirt1 and Sirt3” value in assay [2] (muscle and WAT) is recorded as “induced”.

The values above are taken from patent publication US20140106387A1, “METHOD FOR CONTROLLING NAD(P)/NAD(P)H RATIO BY OXIDOREDUCTASE” (MD BIOALPHA CO., LTD., priority 2006, published 2014).
